From publication PMC2725291, “Genetic and Molecular Basis of Individual Differences in Human Umami Taste Perception” (PLoS ONE, 2009)

Test system: 254 Japanese subjects
Test: Taste recognition threshold measurement (staircase method)
Format: in vivo, human
Conditions: for mean recognition threshold by Gaussian fit analysis: center±S.E. of gaussian curve
Text: A total of 254 healthy, non-obese, non-diabetic Japanese volunteers [male/female: 141/113, age: 20–36, body mass index (BMI); 16.5–24.8] participated in this study. The purpose of the study as well as the methods and procedure were explained to the participants and the patients in this manuscript have given written informed consent. All protocols were approved by the local ethics committee at Kyushu University. Subjects were asked to refrain from consuming alcohol the day before testing, caffeine on the day of testing, and food during the experimentation period. The inclusion criteria were satisfactory state of oral hygiene, non-smoking, regular work, sleep, and meal schedules.
As MSG contains sodium, great care was taken to compare individual sensitivities to MSG relative to NaCl. […] The differences in concentrations in the present study were in 0.3 log steps, which mean step-wise increases in concentration by a factor of 2.0. All solutions were made up in distilled water and used at room temperature. The testing procedure was the staircase-method modified from Pasquet et al.. Each subject evaluated all 7 tastants. The seven series of solutions were presented one after another within a single section. Within each series, the solutions with each 2.0 ml were applied to the whole tongue of each subject with a pipet in order of ascending concentrations. The subjects were asked not to swallow test solutions and rinse their mouth between two solutions with distilled water. The subject was requested to correctly name the taste quality in each series. Once the taste of two successive concentrations was recognized successfully, the subject was given the previous unrecognized concentration (first reversal). The points at which concentration sequence changed from a decrease to an increase or vice versa were designated “reversals”. The procedure was terminated after five reversals, and the threshold was calculated as the mean of the concentration values of the last four reversals.
Student's t-test was used for detection of differences in the mean recognition thresholds between males and females. The χ^2 test was used for checking Hardy-Weinberg Equilibrium (HWE) for the genotype frequencies in samples to control genotyping errors, for detection of differences in genotype and allele frequencies between high and low taste recognition threshold groups. Yates'χ^2 test was used when the number was less than 10. The mean values (the center±S.E. of gaussian curve on X-axis) in the distribution of recognition thresholds defined by TAS1R1/TAS1R3 haplotypes (TAS1R1-372A/TAS1R3-757R homozygotes, TAS1R1-372T/TAS1R3-757R homozygotes, homo- and heterozygotes containing TAS1R3-757C) were calculated using gauss fit function of Origin 5.0 (OriginLab Corp). For Ca^2+ imaging analysis, data were normalized to response to 10 µM ISO, and mean values (±S.E.) were calculated from 10∼18 independent analyses. EC50 values were calculated from individual cumulative concentration-response data using sigmoid fit functions of Origin 5.0. One factor ANOVAs were conducted for detection of differences in the distributions of recognition thresholds for umami substances among 3 groups defined by TAS1R1/TAS1R3 haplotypes, and in the responses to 5, 20 and 50 mM MSG or 0.3, 5 and 50 mM M+I among TAS1R1/TAS1R3 variants in Ca^2+ imaging analysis. When the ANOVA was significant, post-hoc Student's t-test or Fisher's PLSD test was performed to compare individual means at each umami compound or concentration. Significance level was 0.05.

N[C@@H](CCC(=O)O)C(=O)[O-].[Na+] [MSG, monosodium glutamate]
mean recognition threshold by Gaussian fit analysis (AR homozygotes (372A/757R)): 7.51 ± 0.44 mM
mean (±S.E.) recognition threshold (AR homozygotes (372A/757R, n = 84)): 6.23 ± 0.45 mM
mean recognition threshold by Gaussian fit analysis (TR homozygotes (372T/757R)): 4.38 ± 0.29 mM
mean (±S.E.) recognition threshold (TR homozygotes (372T/757R, n = 37)): 4.65 ± 0.47 mM
difference of mean recognition thresholds among 3 groups divided by TAS1R1-A372T and TAS1R3-R757C haplotypes (TR<AR<TAS1R3-757C): 2∼3 fold
mean (±S.E.) recognition threshold (all subjects (254 Japanese, both genders)): 7.66 ± 0.43 mM
mean recognition threshold (female subjects): 6.91 ± 0.62 mM
mean (±S.E.) recognition threshold (homo- and heterozygotes containing TAS1R3-757C (n = 39)): 8.43 ± 0.98 mM
mean recognition threshold by Gaussian fit analysis (homo- and heterozygotes containing TAS1R3-757C): 8.60 ± 0.20 mM
mean recognition threshold (male subjects): 8.27 ± 0.60 mM
